Measurements from PubChem BioAssay (NCI).
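A five-concentration, 48-hour dose response in 96-well plates underlies each endpoint, interpolated linearly between surrounding concentrations. Abbreviation: GI50, concentration required for 50% inhibition of growth. TGI: concentration producing complete growth inhibition.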

Legend:
Test in all cases: growth of human tumour cells (NCI), 48 h
SN12C renal = system: SN12C renal
UACC-62 melanoma = system: UACC-62 melanoma
SNB-75 CNS = system: SNB-75 CNS
HCC-2998 colon = system: HCC-2998 colon
U251 CNS = system: U251 CNS
NCI/ADR-RES ovarian = system: NCI/ADR-RES ovarian
PC-3 prostate = system: PC-3 prostate
SW-620 colon = system: SW-620 colon
CCRF-CEM leukemia = system: CCRF-CEM leukemia
OVCAR-3 ovarian = system: OVCAR-3 ovarian
NCI-H522 lung = system: NCI-H522 lung
MOLT-4 leukemia = system: MOLT-4 leukemia
SF-268 CNS = system: SF-268 CNS
LOX IMVI melanoma = system: LOX IMVI melanoma
OVCAR-8 ovarian = system: OVCAR-8 ovarian
CAKI-1 renal = system: CAKI-1 renal
SK-OV-3 ovarian = system: SK-OV-3 ovarian
NCI-H226 lung = system: NCI-H226 lung
MDA-MB-435 = system: MDA-MB-435
NCI-H460 lung = system: NCI-H460 lung
BT-549 breast = system: BT-549 breast
UACC-257 melanoma = system: UACC-257 melanoma
COLO 205 colon = system: COLO 205 colon
SNB-19 CNS = system: SNB-19 CNS
RXF 393 renal = system: RXF 393 renal
SF-539 CNS = system: SF-539 CNS
ACHN renal = system: ACHN renal
SF-295 CNS = system: SF-295 CNS
M14 melanoma = system: M14 melanoma
MDA-MB-231 breast = system: MDA-MB-231 breast
HCT-15 colon = system: HCT-15 colon
HT29 colon = system: HT29 colon
HCT-116 colon = system: HCT-116 colon
IGROV1 ovarian = system: IGROV1 ovarian
RPMI-8226 leukemia = system: RPMI-8226 leukemia
786-0 renal = system: 786-0 renal
A549 NSCLC = system: A549 NSCLC
MALME-3M melanoma = system: MALME-3M melanoma
EKVX NSCLC = system: EKVX NSCLC
KM12 colon = system: KM12 colon
SR leukemia = system: SR leukemia
HL-60(TB) leukemia = system: HL-60(TB) leukemia
MCF7 breast = system: MCF7 breast
SK-MEL-28 melanoma = system: SK-MEL-28 melanoma
TK-10 renal = system: TK-10 renal
NCI-H23 lung = system: NCI-H23 lung
UO-31 renal = system: UO-31 renal
OVCAR-4 ovarian = system: OVCAR-4 ovarian
T-47D breast = system: T-47D breast
HOP-62 NSCLC = system: HOP-62 NSCLC
DU-145 prostate = system: DU-145 prostate
K-562 leukemia = system: K-562 leukemia
OVCAR-5 ovarian = system: OVCAR-5 ovarian
HOP-92 NSCLC = system: HOP-92 NSCLC
SK-MEL-5 melanoma = system: SK-MEL-5 melanoma
HS 578T breast = system: HS 578T breast
A498 renal = system: A498 renal

S=C1SC2=Nc3ccccc3CN2C2=NCCN12
GI50 (SN12C renal): > 100 µM | TGI (SN12C renal): > 100 µM | GI50 (UACC-62 melanoma): 72.5 µM | TGI (UACC-62 melanoma): > 100000 nM | GI50 (SNB-75 CNS): 17.4 µM | TGI (SNB-75 CNS): > 100000 nM | GI50 (HCC-2998 colon): > 100000 nM | TGI (HCC-2998 colon): > 100000 nM | GI50 (U251 CNS): 39.2 µM | TGI (U251 CNS): > 100 µM | GI50 (NCI/ADR-RES ovarian): > 100 µM | TGI (NCI/ADR-RES ovarian): > 100 µM | GI50 (PC-3 prostate): > 100000 nM | TGI (PC-3 prostate): > 100000 nM | GI50 (SW-620 colon): 39.8 µM | TGI (SW-620 colon): > 100 µM | GI50 (CCRF-CEM leukemia): 36.7 µM | TGI (CCRF-CEM leukemia): > 100000 nM | GI50 (OVCAR-3 ovarian): 80.8 µM | TGI (OVCAR-3 ovarian): > 100 µM | GI50 (NCI-H522 lung): 27.7 µM | TGI (NCI-H522 lung): > 100 µM | GI50 (MOLT-4 leukemia): 39.9 µM | TGI (MOLT-4 leukemia): > 100000 nM | GI50 (SF-268 CNS): > 100 µM | TGI (SF-268 CNS): > 100 µM | GI50 (LOX IMVI melanoma): 25.9 µM | TGI (LOX IMVI melanoma): 83.2 µM | GI50 (OVCAR-8 ovarian): > 100 µM | TGI (OVCAR-8 ovarian): > 100 µM | GI50 (CAKI-1 renal): > 100000 nM | TGI (CAKI-1 renal): > 100000 nM | GI50 (SK-OV-3 ovarian): > 100000 nM | TGI (SK-OV-3 ovarian): > 100000 nM | GI50 (NCI-H226 lung): > 100 µM | TGI (NCI-H226 lung): > 100 µM | GI50 (MDA-MB-435): > 100 µM | TGI (MDA-MB-435): > 100 µM | GI50 (NCI-H460 lung): > 100 µM | TGI (NCI-H460 lung): > 100 µM | GI50 (BT-549 breast): 99.9 µM | TGI (BT-549 breast): > 100000 nM | GI50 (UACC-257 melanoma): > 100000 nM | TGI (UACC-257 melanoma): > 100000 nM | GI50 (COLO 205 colon): 54.4 µM | TGI (COLO 205 colon): > 100 µM | GI50 (SNB-19 CNS): > 100 µM | TGI (SNB-19 CNS): > 100 µM | GI50 (RXF 393 renal): 23.3 µM | TGI (RXF 393 renal): 80.4 µM | GI50 (SF-539 CNS): > 100000 nM | TGI (SF-539 CNS): > 100000 nM | GI50 (ACHN renal): > 100 µM | TGI (ACHN renal): > 100 µM | GI50 (SF-295 CNS): 83.5 µM | TGI (SF-295 CNS): > 100 µM | GI50 (M14 melanoma): > 100000 nM | TGI (M14 melanoma): > 100000 nM | GI50 (MDA-MB-231 breast): > 100 µM | TGI (MDA-MB-231 breast): > 100 µM | GI50 (HCT-15 colon): 33 µM | TGI (HCT-15 colon): > 100 µM | GI50 (HT29 colon): 34.7 µM | TGI (HT29 colon): > 100 µM | GI50 (HCT-116 colon): 52.8 µM | TGI (HCT-116 colon): > 100 µM | GI50 (IGROV1 ovarian): 7.88 µM | TGI (IGROV1 ovarian): > 100 µM | GI50 (RPMI-8226 leukemia): > 100 µM | TGI (RPMI-8226 leukemia): > 100 µM | GI50 (786-0 renal): > 100 µM | TGI (786-0 renal): > 100 µM | GI50 (A549 NSCLC): > 100 µM | TGI (A549 NSCLC): > 100 µM | GI50 (MALME-3M melanoma): 49.6 µM | TGI (MALME-3M melanoma): > 100000 nM | GI50 (EKVX NSCLC): > 100 µM | TGI (EKVX NSCLC): > 100 µM | GI50 (KM12 colon): > 100 µM | TGI (KM12 colon): > 100 µM | GI50 (SR leukemia): 18.7 µM | TGI (SR leukemia): 55.7 µM | GI50 (HL-60(TB) leukemia): 89.2 µM | TGI (HL-60(TB) leukemia): > 100000 nM | GI50 (MCF7 breast): 51.5 µM | TGI (MCF7 breast): > 100 µM | GI50 (SK-MEL-28 melanoma): > 100000 nM | TGI (SK-MEL-28 melanoma): > 100000 nM | GI50 (TK-10 renal): > 100000 nM | TGI (TK-10 renal): > 100000 nM | GI50 (NCI-H23 lung): > 100 µM | TGI (NCI-H23 lung): > 100 µM | GI50 (UO-31 renal): > 100000 nM | TGI (UO-31 renal): > 100000 nM | GI50 (OVCAR-4 ovarian): > 100 µM | TGI (OVCAR-4 ovarian): > 100 µM | GI50 (T-47D breast): 78.5 µM | TGI (T-47D breast): > 100 µM | GI50 (HOP-62 NSCLC): > 100000 nM | TGI (HOP-62 NSCLC): > 100000 nM | GI50 (DU-145 prostate): > 100000 nM | TGI (DU-145 prostate): > 100000 nM | GI50 (K-562 leukemia): 32.8 µM | TGI (K-562 leukemia): > 100 µM | GI50 (OVCAR-5 ovarian): > 100000 nM | TGI (OVCAR-5 ovarian): > 100000 nM | GI50 (HOP-92 NSCLC): > 100000 nM | TGI (HOP-92 NSCLC): > 100000 nM | GI50 (SK-MEL-5 melanoma): 14.8 µM | TGI (SK-MEL-5 melanoma): 55.5 µM

c1csc(-c2c3ccc(=[N+]4CCCCC4)cc-3oc3cc(N4CCCCC4)ccc23)c1
GI50 (UACC-62 melanoma): 0.159 µM | TGI (UACC-62 melanoma): 356 nM | GI50 (SNB-75 CNS): 0.123 µM | TGI (SNB-75 CNS): 508 nM | GI50 (HCC-2998 colon): 39.1 nM | TGI (HCC-2998 colon): 140 nM | GI50 (PC-3 prostate): 37.3 nM | TGI (PC-3 prostate): 177 nM | GI50 (CCRF-CEM leukemia): 0.0503 µM | TGI (CCRF-CEM leukemia): 1070 nM | GI50 (MOLT-4 leukemia): 0.0515 µM | TGI (MOLT-4 leukemia): 473 nM | GI50 (CAKI-1 renal): 131 nM | TGI (CAKI-1 renal): 305 nM | GI50 (SK-OV-3 ovarian): 212 nM | TGI (SK-OV-3 ovarian): 682 nM | GI50 (HS 578T breast): 56.3 nM | TGI (HS 578T breast): 565 nM | GI50 (BT-549 breast): 0.135 µM | TGI (BT-549 breast): 320 nM | GI50 (UACC-257 melanoma): 98.2 nM | TGI (UACC-257 melanoma): 321 nM | GI50 (RXF 393 renal): 0.133 µM | TGI (RXF 393 renal): 0.273 µM | GI50 (SF-539 CNS): 44.6 nM | TGI (SF-539 CNS): 195 nM | GI50 (M14 melanoma): 77.6 nM | TGI (M14 melanoma): 215 nM | GI50 (A498 renal): 68.3 nM | TGI (A498 renal): 453 nM | GI50 (MALME-3M melanoma): 0.027 µM | TGI (MALME-3M melanoma): 82.2 nM | GI50 (HL-60(TB) leukemia): 0.145 µM | TGI (HL-60(TB) leukemia): 547 nM | GI50 (SK-MEL-28 melanoma): 143 nM | TGI (SK-MEL-28 melanoma): 293 nM | GI50 (TK-10 renal): 150 nM | TGI (TK-10 renal): 340 nM | GI50 (UO-31 renal): 136 nM | TGI (UO-31 renal): 277 nM | GI50 (HOP-62 NSCLC): 64.8 nM | TGI (HOP-62 NSCLC): 199 nM | GI50 (DU-145 prostate): 57.8 nM | TGI (DU-145 prostate): 201 nM | GI50 (OVCAR-5 ovarian): 202 nM | TGI (OVCAR-5 ovarian): 733 nM | GI50 (HOP-92 NSCLC): 127 nM | TGI (HOP-92 NSCLC): 309 nM | GI50 (SK-MEL-5 melanoma): 0.141 µM | TGI (SK-MEL-5 melanoma): 0.276 µM
